Measured values: US20250222044A1, “LIMOSILACTOBACILLUS REUTERI GOLDGUT-LR99 AND APPLICATION THEREOF” (priority 2024, published 2025)

These compounds were tested on Limosilactobacillus reuteri GOLDGUT-LR99 (assay: Carbon source utilization and oxidation experiment (AN Biolog micro-pore plate)). Conditions: substrate utilization by the strain, 37° C. anaerobic culture for 24 hours.
Type: cell-based
Protocol: The AN Biolog micro-pore plate was used for measuring the utilization and oxidation conditions of different carbon sources of Limosilactobacillus reuteri GOLDGUT-LR99, the AN microplate used nutrients and biochemical reagents, and the method included the following steps: 1 mL of Limosilactobacillus reuteri GOLDGUT-LR99 bacterial liquid of the strain to be detected at the end of logarithmic growth was pipetted and centrifuged, then the supernatant was removed, the cells was washed three times with the seed liquid and suspended with 1 mL of the seed liquid, 50 μL of the suspension was taken and diluted in 10 mL of the seed liquid, the diluent was subpacked in a Biolog plate (100 μL/pore) after mixing uniformly, and the Biolog plate with the diluent was placed in 37° C. for anaerobic culture for 24 hours. After the culture was finished, OD590 and OD750 were detected by using microplate reader, the numerical values were recorded, and the utilization conditions of carbohydrate, organic acid and other substances of the Limosilactobacillus reuteri GOLDGUT-LR99 were calculated, wherein the calculation method was as follows: Y=OD590−OD750;
`CC(O)CC(=O)O` (stereo not drawn) [β-Hydroxybutyric acid] was tested, and the “Utilization (Y=OD590−OD750)” value was “− (when Y < 0.05, it is shown that the strain was not able to utilize this substance, marked as −)”. With `CO[C@@H]1O[C@H](CO)[C@@H](O)[C@H](O)[C@H]1O` [β-Methyl-D-galactoside] the “Utilization (Y=OD590−OD750)” value was “− (when Y < 0.05, it is shown that the strain was not able to utilize this substance, marked as −)”. `CO[C@@H]1O[C@H](CO)[C@@H](O)[C@H](O)[C@H]1O` [β-Methyl-D-glucoside] was tested, and the “Utilization (Y=OD590−OD750)” value was “− (when Y < 0.05, it is shown that the strain was not able to utilize this substance, marked as −)”. For D-Aminoglucuronate, the “Utilization (Y=OD590−OD750)” value was “++ (when Y > 0.1, it is shown that the strain was able to effectively utilize this substance, marked as++)”. In the case of Dextrin, the “Utilization (Y=OD590−OD750)” value is reported as “− (when Y < 0.05, it is shown that the strain was not able to utilize this substance, marked as −)”. In the case of Glycine-L-aspartic acid, the “Utilization (Y=OD590−OD750)” value is reported as “− (when Y < 0.05, it is shown that the strain was not able to utilize this substance, marked as −)”. For Hexanediol, the “Utilization (Y=OD590−OD750)” value was “− (when Y < 0.05, it is shown that the strain was not able to utilize this substance, marked as −)”. With L-Alanyl-L-M-glutamate the “Utilization (Y=OD590−OD750)” value was “− (when Y < 0.05, it is shown that the strain was not able to utilize this substance, marked as −)”. L-Alanyl-L-M-threonine was tested, and the “Utilization (Y=OD590−OD750)” value was “− (when Y < 0.05, it is shown that the strain was not able to utilize this substance, marked as −)”. In the case of L-Asparagine acid, the “Utilization (Y=OD590−OD750)” value is reported as “+ (when 0.1 > Y > 0.05, it is shown that the strain was able to better utilize this substance, marked as +)”. With L-Glutamate salt the “Utilization (Y=OD590−OD750)” value was “− (when Y < 0.05, it is shown that the strain was not able to utilize this substance, marked as −)”. For L-Uracilic acid, the “Utilization (Y=OD590−OD750)” value was “− (when Y < 0.05, it is shown that the strain was not able to utilize this substance, marked as −)”. For L-Valine + L-M-Aspartamid acid, the “Utilization (Y=OD590−OD750)” value was “− (when Y < 0.05, it is shown that the strain was not able to utilize this substance, marked as −)”. With Maltotriose the “Utilization (Y=OD590−OD750)” value was “++ (when Y > 0.1, it is shown that the strain was able to effectively utilize this substance, marked as++)”. With α-Succinic acid the “Utilization (Y=OD590−OD750)” value was “− (when Y < 0.05, it is shown that the strain was not able to utilize this substance, marked as −)”.

These compounds were tested on Limosilactobacillus reuteri GOLDGUT-LR99 (assay: Antibiotic sensitivity, K-B method (Kirby-Bauer method)). Conditions: susceptibility of the strain to the antibiotic.
Type: cell-based
Design: key to Antibiotic susceptibility test result: R represents resistance; S represents sensitivity
Protocol: Antibiotic sensitivity of Limosilactobacillus reuteri GOLDGUT-LR99 was determined using the K-B method (Kirby-Bauer method).
In the case of `CC1(C)S[C@@H]2[C@H](NC(=O)[C@H](N)c3ccccc3)C(=O)N2[C@H]1C(=O)O` [Ampicillin], the “Antibiotic susceptibility test result” value is reported as “S” and the “antibiotic sensitivity (in words)” value is reported as “sensitive”. In the case of `CC1(C)S[C@@H]2[C@H](NC(=O)Cc3ccccc3)C(=O)N2[C@H]1C(=O)O` [Benzylpenicillin], the “Antibiotic susceptibility test result” value is reported as “S”. For `CC1(C)S[C@@H]2[C@H](NC(=O)C(C(=O)O)c3ccccc3)C(=O)N2[C@H]1C(=O)O` (some centres unmarked) [Carbenicillin], the “Antibiotic susceptibility test result” value was “S”. In the case of `Cc1nnc(SCC2=C(C(=O)O)N3C(=O)[C@@H](NC(=O)Cn4cnnn4)[C@H]3SC2)s1` [Cefazolin], the “Antibiotic susceptibility test result” value is reported as “S”. With `CCN1CCN(C(=O)N[C@@H](C(=O)N[C@@H]2C(=O)N3C(C(=O)O)=C(CSc4nnnn4C)CS[C@H]23)c2ccc(O)cc2)C(=O)C1=O` [Cefperazone] the “Antibiotic susceptibility test result” value was “S”. `CC1=C(C(=O)O)N2C(=O)[C@@H](NC(=O)[C@H](N)C3=CCC=CC3)[C@H]2SC1` [Cefradine] was tested, and the “Antibiotic susceptibility test result” value was “S”. With `CC(C)(O/N=C(\C(=O)N[C@@H]1C(=O)N2C(C(=O)[O-])=C(C[n+]3ccccc3)CS[C@H]12)c1csc(N)n1)C(=O)O` [Ceftazidime] the “Antibiotic susceptibility test result” value was “S”. In the case of `CO/N=C(\C(=O)N[C@@H]1C(=O)N2C(C(=O)O)=C(CSc3nc(=O)c(=O)[nH]n3C)CS[C@H]12)c1csc(N)n1` [Ceftriaxone], the “Antibiotic susceptibility test result” value is reported as “S”. In the case of `CO/N=C(\C(=O)N[C@@H]1C(=O)N2C(C(=O)O)=C(COC(N)=O)CS[C@H]12)c1ccco1` [Cefuroxime], the “Antibiotic susceptibility test result” value is reported as “S”. For `CC1=C(C(=O)O)N2C(=O)[C@@H](NC(=O)[C@H](N)c3ccccc3)[C@H]2SC1` [Cephalexin], the “Antibiotic susceptibility test result” value was “S”.
